{"source": "patent US20100111874A1", "about": "“METHOD OF CANCER DETECTION AND TREATMENT” (University of Medicine and Dentistry of New Jresey, priority 2007, published 2010)", "format_in_all_cases": "cell-based", "key": {"[1]": {"tested_on": "MCF7/RC breast cancer cells", "test": "MTT assay, CPT IC50", "settings": "Homo sapiens, 96 h; MCF7/RC low-level CPT-resistant clone; CPT continuously for 4 days", "experimental": "(§1) Cell survival assays. MTT assay: Cells (3000 cells/well) are plated in 96-well microtiter plates and incubated at 37° C. in a CO2 incubator. For determination of IC50, cells are treated with varying concentrations of CPT for four days. Cells are then incubated with MTT (3-(4,5-dimethylthiazol-2-yl)-2,5-diphenyltetrazolium bromide) for 4 hrs at 37° C. The dye produced by viable cells is dissolved in DMSO and the optical density measured at 570 nm. All assays are performed at least twice in six replicate wells. Clonogenic assay: Cells (100-500 cells/plate) are plated in 6-well tissue culture plates and incubated at 37° C. in a CO2 incubator. Cells are then treated with various concentrations of CPT for 1 hr. Following CPT treatment, cells are washed free of CPT and placed in fresh medium. After 10 days, survived colonies are stained with Methylene blue and counted using the Minicount machine. Cell counting assay: Logarithmically growing cells are treated with various concentrations of CPT for 1 hr. CPT is then removed by washing the plates with CPT-free medium four times. Washed cells are allowed to grow in CPT-free medium for 4 days. Cell survival is determined by counting cells using the Coulter counter after trypsinization.\n(§2) Example No. 6. […] Panel A, formation of cleavable complexes in MCF7 and MCF7/RC breast cancer cells. […]"}, "MCF7 breast cancer cells": {"tested_on": "MCF7 breast cancer cells", "test": "MTT assay, CPT IC50", "settings": "Homo sapiens, 96 h, CPT continuously for 4 days", "experimental": "as §1, §2"}, "[2]": {"tested_on": "ZR-75-1 cells stably expressing ISG15 or UbcH8 shRNA", "test": "Clonogenic survival assay", "experimental": "as §1, with “Washed cells are allowed to grow in CPT-free medium for 4 days.” left out\nExample No. 3. […] Cell lysates of ZR-75-1 clones expressing either control shRNA (lane #1) or ISG15 shRNA (lanes #2) are analyzed by 15% SDS-PAGE. […] Equal protein loading is assessed by re-probing the same membrane with anti-tubulin antibody (lower panel). […] Equal protein loading is assessed by re-probing the same membrane blot with anti-tubulin antibody (lower panels).\nExample No. 4. […] Cell lysates prepared from ZR-75-1 clones expressing either control shRNA (lane #1) or UbcH8 shRNA (lanes #2 and 3, from two independent clones), and the purified UbcH8 protein (lane #4) are analyzed by 15% SDS-PAGE. […] Equal protein loading is assessed by re-probing the same membrane with anti-tubulin antibody (lower panels). […] Cell lysates prepared from ZR-75-1 clones expressing either control shRNA (lane #1) or UbcH8 shRNA (lanes #2 and 3, two independent clones), and the purified UbcH8 protein (lane #4) are analyzed by 15% SDS-PAGE. […]"}}}
{"smiles": "CC[C@@]1(O)C(=O)OCc2c1cc1n(c2=O)Cc2cc3ccccc3nc2-1", "note": "[CPT, camptothecin]", "values": [{"measurement": "IC50", "setting": "[1]", "result": 30, "unit": "nM"}, {"measurement": "IC50", "setting": "MCF7 breast cancer cells", "result": 3.5, "unit": "nM"}, {"measurement": "resistance to CPT, clonogenic survival", "setting": "[2]; ZR/ISG15-shRNA1 vs control-shRNA cells, one hr acute exposure", "result": "much more resistant"}, {"measurement": "resistance to CPT, clonogenic survival", "setting": "[2]; ZR/UbcH8-shRNA1 vs ZR/control-shRNA2, one-hr acute CPT exposure", "result": "much more resistant"}, {"measurement": "resistance to CPT, clonogenic survival", "setting": "[2]; ZR/UbcH8-shRNA2 vs ZR/control-shRNA2, one-hr acute CPT exposure", "result": "much more resistant"}]}
